Consider 18 molecules from US20250136606A1, “MODULATORS OF TRPML, THEIR COMPOSITIONS AND METHODS OF USE” (Caraway Therapeutics, Inc., priority 2021, published 2025).

Holding throughout (type): cell-based
One assay deals with TRPML1 (Homo sapiens, UniProt Q9GZU1). Put plainly: Fluorescent TRPML1 assay (Fluo4-AM calcium fluorescence in doxycycline-induced HEK-293 Trex cells). Summed up: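 HEK-293 Trex cells stably carrying human TRPML1 (surface-trafficking mutant) were induced overnight with 0.5 ug/mL doxycycline, loaded with 1 micromolar Fluo4-AM, and suspended in Ringer's with 10 mM calcium. Compounds at 20 micromolar to 6 nanomolar final, half-log steps, triplicate; fluorescence 480/540 nm gave percent activity versus controls and EC50 by non-linear regression.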

The next assay concerns the target T1, TRPML2 (Homo sapiens, UniProt Q8IZK6).
T1 construct: expressed in transfected cells
T1 sequence (Q8IZK6 1-566): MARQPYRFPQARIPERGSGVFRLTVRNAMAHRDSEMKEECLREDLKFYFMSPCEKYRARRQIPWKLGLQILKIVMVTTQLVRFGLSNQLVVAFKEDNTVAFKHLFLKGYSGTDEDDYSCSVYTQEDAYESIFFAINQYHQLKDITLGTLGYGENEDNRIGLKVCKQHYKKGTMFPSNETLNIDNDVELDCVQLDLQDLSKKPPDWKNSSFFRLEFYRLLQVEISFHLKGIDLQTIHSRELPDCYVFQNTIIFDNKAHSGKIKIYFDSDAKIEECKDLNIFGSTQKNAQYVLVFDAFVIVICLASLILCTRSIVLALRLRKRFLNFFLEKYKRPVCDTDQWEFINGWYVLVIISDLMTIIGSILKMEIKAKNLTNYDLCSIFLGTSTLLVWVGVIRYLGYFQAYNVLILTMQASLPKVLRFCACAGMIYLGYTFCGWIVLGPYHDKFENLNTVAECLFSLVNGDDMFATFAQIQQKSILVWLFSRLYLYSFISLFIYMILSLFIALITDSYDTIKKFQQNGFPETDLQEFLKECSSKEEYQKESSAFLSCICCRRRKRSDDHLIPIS
Put plainly: Fluorescent TRPML2 assay (performed as for TRPML1, substituting the TRPML2 subtype). Summed up:
(§1)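 Doxycycline-induced (0.5 ug/mL) HEK-293 Trex cells stably expressing surface-directed mutant channel were loaded with 1 micromolar Fluo4-AM, resuspended in Ringer's with 10 mM calcium and added to compound plates. Fluorescence (ex 480, em 540 nm) gave percent activity versus on-plate controls; EC50 by non-linear regression.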

The next assay has as its target T2, TRPML3 (Homo sapiens, UniProt Q8TDD5).
T2 construct: expressed in transfected cells
T2 sequence (Q8TDD5 1-553): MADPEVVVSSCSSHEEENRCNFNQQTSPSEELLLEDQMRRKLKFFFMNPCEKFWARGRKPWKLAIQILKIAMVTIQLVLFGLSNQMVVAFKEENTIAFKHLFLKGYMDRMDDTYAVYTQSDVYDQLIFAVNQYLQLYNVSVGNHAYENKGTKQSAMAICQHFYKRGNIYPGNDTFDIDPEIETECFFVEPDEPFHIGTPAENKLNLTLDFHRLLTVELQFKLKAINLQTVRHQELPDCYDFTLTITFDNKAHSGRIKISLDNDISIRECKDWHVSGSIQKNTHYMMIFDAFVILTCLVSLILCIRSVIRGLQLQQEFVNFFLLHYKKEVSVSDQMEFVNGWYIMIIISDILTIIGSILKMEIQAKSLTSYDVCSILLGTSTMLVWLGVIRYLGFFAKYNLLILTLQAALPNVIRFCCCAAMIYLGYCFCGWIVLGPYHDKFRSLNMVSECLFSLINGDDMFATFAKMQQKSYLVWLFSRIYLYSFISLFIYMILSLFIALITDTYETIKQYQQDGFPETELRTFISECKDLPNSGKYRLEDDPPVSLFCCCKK
Nature of the assay: Fluorescent TRPML3 assay (performed as for TRPML1, substituting the TRPML3 subtype). Put shortly:
as §1

The structures appear in SMILES notation.

Sequence of TRPML1 (Q9GZU1 whole entry L15A/L16A/L577A/L578A, form open): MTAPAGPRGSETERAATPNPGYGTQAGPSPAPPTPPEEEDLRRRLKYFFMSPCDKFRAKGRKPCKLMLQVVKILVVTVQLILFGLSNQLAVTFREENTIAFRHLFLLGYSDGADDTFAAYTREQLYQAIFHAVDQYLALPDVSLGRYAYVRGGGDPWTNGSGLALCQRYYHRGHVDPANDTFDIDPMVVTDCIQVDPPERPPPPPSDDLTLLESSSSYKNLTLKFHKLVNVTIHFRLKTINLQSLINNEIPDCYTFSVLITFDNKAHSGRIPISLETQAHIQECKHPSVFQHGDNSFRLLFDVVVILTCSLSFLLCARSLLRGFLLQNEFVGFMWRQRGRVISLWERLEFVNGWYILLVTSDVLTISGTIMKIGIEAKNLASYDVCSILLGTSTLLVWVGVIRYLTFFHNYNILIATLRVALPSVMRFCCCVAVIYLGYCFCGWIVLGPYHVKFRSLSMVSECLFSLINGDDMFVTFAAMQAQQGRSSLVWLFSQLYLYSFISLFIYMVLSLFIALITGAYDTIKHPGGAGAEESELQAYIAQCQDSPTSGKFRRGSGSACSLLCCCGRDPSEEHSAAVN

As a reminder, the EC50 is the concentration giving half of the maximal effect. With `C[C@H]1CN(C(=O)OC(C)(C)C)CCN1c1ncnc2c1c(N1CCC1)cn2-c1cccc(F)c1` [Compound 636, tert-butyl (S)-4-(5-(azetidin-1-yl)-7-(3-fluorophenyl)-7H-pyrrolo[2,3-d]pyrimidin-4-yl)-3-methylpiperazine-1-carboxylate], the EC50 at TRPML1, on TRPML2 and on TRPML3 was below 100 nM each time.

On to `C[C@H]1CN(C(=O)OC(C)(C)C)CCN1c1nccc2c1c(N1CCC1)cn2-c1cccc(F)c1` [Compound 637, tert-butyl (S)-4-(3-(azetidin-1-yl)-1-(3-fluorophenyl)-1H-pyrrolo[3,2-c]pyridin-4-yl)-3-methylpiperazine-1-carboxylate], for which the EC50 on TRPML1 was below 100 nM; on TRPML2, 100 to 500 nM; at TRPML3 it was below 100 nM.

For `C[C@@H]1CN(c2nccc3c2c(N2CCC2)cn3-c2cccc(F)c2)[C@@H](C)CN1C(=O)OC(C)(C)C` [Compound 638], the concentration giving a half-maximal response (EC50) at TRPML1 is below 100 nM; at TRPML2, 100 to 500 nM; on TRPML3, below 100 nM.

With `C[C@H]1CN(C(=O)OC(C)(C)C)CCN1c1ncnc2c1c(C1CCC1)cn2-c1cccc(F)c1` [Compound 641, tert-butyl (S)-4-(5-cyclobutyl-7-(3-fluorophenyl)-7H-pyrrolo[2,3-d]pyrimidin-4-yl)-3-methylpiperazine-1-carboxylate], the 50% effective concentration (EC50) on TRPML1, on TRPML2 and at TRPML3 was below 100 nM in each case.

Regarding `COc1ccnc(-n2cc(C3CC3)c3c(N4C[C@@H](C)N(C(=O)OC(C)(C)C)C[C@@H]4C)ncnc32)c1` [Compound 642, tert-butyl (2R,5S)-4-(5-cyclopropyl-7-(4-methoxypyridin-2-yl)-7H-pyrrolo[2,3-d]pyrimidin-4-yl)-2,5-dimethylpiperazine-1-carboxylate], the concentration giving a half-maximal response (EC50) lay in the range of 100 to 500 nM at TRPML1, 500 to 2000 nM on TRPML2 and 100 to 500 nM on TRPML3.

In the case of `C[C@@H]1CN(c2ncnc3c2c(C2CC2)cn3-c2ccccn2)[C@@H](C)CN1C(=O)OC(C)(C)C` [Compound 643, tert-butyl (2R,5S)-4-(5-cyclopropyl-7-(pyridin-2-yl)-7H-pyrrolo[2,3-d]pyrimidin-4-yl)-2,5-dimethylpiperazine-1-carboxylate], the EC50 on TRPML1 lay in the range of 100 to 500 nM; on TRPML2, 500 to 2000 nM; on TRPML3, 100 to 500 nM.

As for `Cc1ccnc(-n2cc(C3CC3)c3c(N4C[C@@H](C)N(C(=O)OC(C)(C)C)C[C@@H]4C)ncnc32)c1` [Compound 644, tert-butyl (2R,5S)-4-(5-cyclopropyl-7-(4-methylpyridin-2-yl)-7H-pyrrolo[2,3-d]pyrimidin-4-yl)-2,5-dimethylpiperazine-1-carboxylate], the EC50 was in the range of 100 to 500 nM at TRPML1, 500 to 2000 nM on TRPML2 and 100 to 500 nM at TRPML3.

Take `C[C@@H]1CN(c2ncnc3c2c(C2CCC2)cn3-c2cccc(C(F)(F)F)c2)[C@@H](C)CN1C(=O)OC(C)(C)C` [Compound 645, tert-butyl (2R,5S)-4-(5-cyclobutyl-7-(3-(trifluoromethyl)phenyl)-7H-pyrrolo[2,3-d]pyrimidin-4-yl)-2,5-dimethylpiperazine-1-carboxylate]: the concentration giving a half-maximal response (EC50) on TRPML1, on TRPML2 and on TRPML3 was 100 to 500 nM each time.

With `C[C@@H]1CN(c2ncnc3c2c(C2CCC2)cn3-c2cccc(F)c2)[C@@H](C)CN1C(=O)OC(C)(C)C` [Compound 646, tert-butyl (2R,5S)-4-(5-cyclobutyl-7-(3-fluorophenyl)-7H-pyrrolo[2,3-d]pyrimidin-4-yl)-2,5-dimethylpiperazine-1-carboxylate], the values for the 50% effective concentration (EC50) at TRPML1, at TRPML2 and at TRPML3 were 500 to 2000 nM, above 2000 nM and 100 to 500 nM, respectively.

`C[C@@H]1CN(c2ncnc3c2c(C2CCC2)cn3-c2cccc(Cl)c2)[C@@H](C)CN1C(=O)OC(C)(C)C` [Compound 647, tert-butyl (2R,5S)-4-(7-(3-chlorophenyl)-5-cyclobutyl-7H-pyrrolo[2,3-d]pyrimidin-4-yl)-2,5-dimethylpiperazine-1-carboxylate]: the EC50 on TRPML1 was 100 to 500 nM; at TRPML2, 500 to 2000 nM; on TRPML3, 500 to 2000 nM.

In the case of `C[C@@H]1CN(c2ncnc3c2c(C2CCC2)cn3-c2cc(F)cc(F)c2)[C@@H](C)CN1C(=O)OC(C)(C)C` [Compound 648, tert-butyl (2R,5S)-4-(5-cyclobutyl-7-(3,5-difluorophenyl)-7H-pyrrolo[2,3-d]pyrimidin-4-yl)-2,5-dimethylpiperazine-1-carboxylate], the EC50 lay within 500 to 2000 nM at TRPML1, 500 to 2000 nM on TRPML2 and 100 to 500 nM on TRPML3.

As to `C[C@@H]1CN(c2ncnc3c2c(-c2ccccc2F)cn3-c2cc(C(F)(F)F)ccn2)[C@@H](C)CN1C(=O)OC(C)(C)C` [Compound 649, tert-butyl (2R,5S)-4-(5-(2-fluorophenyl)-7-(4-(trifluoromethyl)pyridin-2-yl)-7H-pyrrolo[2,3-d]pyrimidin-4-yl)-2,5-dimethylpiperazine-1-carboxylate], the EC50 on TRPML1, on TRPML2 and on TRPML3 was below 100 nM each time.

Consider `C[C@@H]1CN(c2ncnc3c2c(-c2ccccc2F)cn3-c2cncc(C#N)c2)[C@@H](C)CN1C(=O)OC(C)(C)C` [Compound 650, tert-butyl (2R,5S)-4-(7-(5-cyanopyridin-3-yl)-5-(2-fluorophenyl)-7H-pyrrolo[2,3-d]pyrimidin-4-yl)-2,5-dimethylpiperazine-1-carboxylate], for which the EC50 at TRPML1, at TRPML2 and at TRPML3 was below 100 nM each time.

On to `C[C@H]1CN(C(=O)OC(C)(C)C)CCN1c1ncnc2c1c(-c1ccccc1F)cn2-c1cc(C(F)(F)F)ccn1` [Compound 651, tert-butyl (S)-4-(5-(2-fluorophenyl)-7-(4-(trifluoromethyl)pyridin-2-yl)-7H-pyrrolo[2,3-d]pyrimidin-4-yl)-3-methylpiperazine-1-carboxylate], for which the 50% effective concentration (EC50) at TRPML1, at TRPML2 and on TRPML3 was below 100 nM each time.

With `C[C@@H]1CN(c2ncnc3c2c(-c2ccccc2F)cn3-c2cc(C(F)(F)F)ccn2)[C@@H](C)CN1C(=O)OC1(C)CC1` [Compound 652, 1-methylcyclopropyl (2R,5S)-4-(5-(2-fluorophenyl)-7-(4-(trifluoromethyl)pyridin-2-yl)-7H-pyrrolo[2,3-d]pyrimidin-4-yl)-2,5-dimethylpiperazine-1-carboxylate], the 50% effective concentration (EC50) at TRPML1 is below 100 nM; on TRPML2 it was 100 to 500 nM; on TRPML3, below 100 nM.

For the molecule `C[C@@H]1CN(c2ncnc3c2c(-c2ccccc2F)cn3-c2cc(F)ccn2)[C@@H](C)CN1C(=O)OC1(C)CC1` [Compound 653, 1-methylcyclopropyl (2R,5S)-4-(5-(2-fluorophenyl)-7-(4-fluoropyridin-2-yl)-7H-pyrrolo[2,3-d]pyrimidin-4-yl)-2,5-dimethylpiperazine-1-carboxylate], the concentration giving a half-maximal response (EC50) on TRPML1, on TRPML2 and on TRPML3 was below 100 nM throughout.

On to `C[C@@H]1CN(c2ncnc3c2c(C2CC2)cn3-c2cccc(Cl)c2)[C@@H](C)CN1C(=O)OC1(C)CC1` [Compound 654, 1-methylcyclopropyl (2R,5S)-4-(7-(3-chlorophenyl)-5-cyclopropyl-7H-pyrrolo[2,3-d]pyrimidin-4-yl)-2,5-dimethylpiperazine-1-carboxylate], for which the EC50 at TRPML1 is 100 to 500 nM; at TRPML2, above 2000 nM; on TRPML3, below 100 nM.

As for `C[C@@H]1CN(c2ncnc3c2c(C2CC2)cn3-c2cc(F)cc(F)c2)[C@@H](C)CN1C(=O)OC1(C)CC1` [Compound 655, 1-methylcyclopropyl (2R,5S)-4-(5-cyclopropyl-7-(3,5-difluorophenyl)-7H-pyrrolo[2,3-d]pyrimidin-4-yl)-2,5-dimethylpiperazine-1-carboxylate], the half-maximal effective concentration (EC50) at TRPML1 is below 100 nM; on TRPML2, below 100 nM; on TRPML3 it was 100 to 500 nM.
